# Laboratory results taken from patent publication US10080779B2, “Method for increasing the expression of anti-microbial peptides by keratinocytes comprising administering a composition comprising IL-17, TNF-alpha and OSM” (Universite D'Angers, priority 2004, dated 2018).
# Tests used:
# [1] = test system: normal human keratinocytes (NHEK); experiment: Cytokine cocktails on S100A7, hBD2/4, KRT10 mRNA in NHEK (RT-Q-PCR); type: cell-based; conditions: NHEK 24 hrs, 1 ng/ml each
# Method: Quantitative real time PCR was carried out using the LightCycler-FastStart DNA Master^PLUS SYBR Green I kit (Roche, Mannheim, Germany). The reaction components were 1× FastStart DNA Master^PLUS SYBR Green I and 0.5 μM of forward and reverse primers for S100A7 (forward 5′-[…]-3′ (SEQ ID No: 9) and reverse 5′-[…]-3′ (SEQ ID No: 10)), S100A8 (Pattyn, Speleman et al. 2003), S100A9 (forward 5′-[…]-3′ (SEQ ID No: 11) and reverse 5′-[…]-3′ (SEQ ID No: 12)), hBD2/4 (forward 5′-[…]-3′ (SEQ ID No: 13) and reverse 5′-[…]-3′ (SEQ ID No: 14)), KRT10 (forward 5′-[…]-3′ (SEQ ID No: 15) and reverse 5′-[…]-3′ (SEQ ID No: 16)), and hydroxymethyl-bilane synthase (HMBS) as a housekeeping gene (Vandesompele, De Preter et al. 2002). After cDNA fluorescent quantification using propidium iodide, 250 ng, 25 ng and 2.5 ng of cDNA were added as PCR template in the LightCycler glass capillaries. The cycling conditions comprised a 10 min polymerase activation at 95° C. and 50 cycles at 95° C. for 10 s, 64° C. for 5 s and 72° C. for 18 s with a single fluorescence measurement. […] A mathematical model was used to determine the relative quantification of target genes compared to HMBS reference gene (Pfaffl 2001).
# To that aim, confluent normal human keratinocytes (NHEK) were treated for 24 hrs with the indicated mix of cytokines (each cytokine at 1 ng/ml final concentration). Total RNA was extracted, reverse-transcribed and the expression of the selected genes was analyzed by real-time PCR as described.
# [2] = test system: NHEK; experiment: Keratinocyte differentiation marker (KDM) mRNA in NHEK (RT-PCR); type: cell-based, human; conditions: 24 h
# Method: Normal human epidermal keratinocytes (NHEK) were obtained as previously described, from surgical samples of healthy breast skin (Boniface et al, 2005). NHEK were cultured to 80% of confluence allowing the expression of a large panel of keratinocyte differentiation markers, and then starved for 24 h in Keratinocyte SFM containing 0.03 mM Ca^2+ (Invitrogen Life Technologies, Cergy Pontoise, France) before stimulation. Confluent differentiated cells were stimulated with or without recombinant IL-17A, OSM, TNFα, IL-22 and IL-1α alone at maximum effective concentrations (reported previously around 10 ng/ml (Boniface et al, 2005 and Boniface et al, 2007)) or in combination (R&D systems Europe, Lille, France) during 2 h to 72 h for mRNA quantification. RHE were generated on polycarbonate culture inserts, from surgical samples of paediatric foreskins as previously described (Guenou et al., 2009). RHE were stimulated with or without recombinant IL-17A, OSM, TNFα, IL-22 and IL-1α alone or in combination, with or without a Janus protein Tyrosine Kinases (JAKs) inhibitor 10 μM (Calbiochem, 420099), during 24 h for mRNA quantification or during 72 h for immunohistological analysis.
# NHEK, RHE and murine skin total RNA were isolated using NucleoSpin® RNA II kit (Macherey-Nagel, Hoerdt, France) and reverse-transcribed with SuperScript® II Reverse Transcriptase (Invitrogen Life Technologies) according to the manufacturer's instructions. Quantitative real time PCR was carried out using the LightCycler-FastStart DNA Master SYBR® Green I kit on LightCycler 480 (Roche Diagnostics, Meylan, France). The reaction components were 1×DNA Master Mix, and 0.5 μM of HPLC purified sense and anti-sense oligonucleotides purchased from Eurogentec (Eurogentec France, Angers, France), designed using Primer3 software. The stability of the housekeeping gene expression has been assessed by using GeNorm algorithm. […] Thus samples were normalized to G3PDH housekeeping gene and reported according to the ΔΔCT method as RNA fold increase: 2^ΔΔCT=2^ΔCT sample−ΔCT reference.
substance,measurement,setting,value
"OSM: human recombinant oncostatin M, cytokine of the IL-6 family","Decrease of the activity of the 5 cytokines reference mix on omission of the cytokine, S100A7",[1],3 fold
same,"Decrease of the activity of the 5 cytokines reference mix on omission of the cytokine, hBD2/4",[1],2.5 fold
same,Rank as contributor to keratinocyte differentiation inhibition (removal from M5),[2],most potent cytokines for keratinocyte differentiation inhibition
same,"mRNA expression of CK1, DSG1, DSC1, FLG, CLSP, LOR and FABPS",[2]; single cytokines 10 ng/ml,downregulate mRNA expression
